Source: US5340801A, “Compounds having cholecystokinin and gastrin antagonistic properties” (Rhone-Poulenc Rorer Pharmaceuticals Inc., priority 1991, dated 1994)
*1 amine or outer side, *2 acyl side, *3 side chain or, on linkers, in order; H or OH if unused. Where a SMILES comes first, the peptide text is derived from it. [ ]: non-standard residue; d: D form. The star is where a group is joined. Hyp = O=C(O)[C@@H]1C[C@@H](O)CN1; βNA = c1ccc2cc(N*)ccc2c1; 2Abz = Nc1ccccc1C(=O)O; CO = O=C([*:1])[*:2]; Bn = c1ccc(C*)cc1

Assays:
gastrin receptor = target: T1, gastrin receptor (Cavia porcellus, UniProt H0VZC5); assay: Gastrin Receptor Binding Assay; conditions: guinea pig gastric glands, displacement of 125I-(Leu-15)-Gastrin, 25° C., 30 minutes; read-out: IC50 Gastrin (In Vitro Binding Data)
T1 construct: The fundic mucosa is gently scraped off the submucosa; from tissue; host or cells: guinea pig (Hartley) fundic mucosa gastric glands, collagenase-dispersed
T1 sequence (H0VZC5 1-426): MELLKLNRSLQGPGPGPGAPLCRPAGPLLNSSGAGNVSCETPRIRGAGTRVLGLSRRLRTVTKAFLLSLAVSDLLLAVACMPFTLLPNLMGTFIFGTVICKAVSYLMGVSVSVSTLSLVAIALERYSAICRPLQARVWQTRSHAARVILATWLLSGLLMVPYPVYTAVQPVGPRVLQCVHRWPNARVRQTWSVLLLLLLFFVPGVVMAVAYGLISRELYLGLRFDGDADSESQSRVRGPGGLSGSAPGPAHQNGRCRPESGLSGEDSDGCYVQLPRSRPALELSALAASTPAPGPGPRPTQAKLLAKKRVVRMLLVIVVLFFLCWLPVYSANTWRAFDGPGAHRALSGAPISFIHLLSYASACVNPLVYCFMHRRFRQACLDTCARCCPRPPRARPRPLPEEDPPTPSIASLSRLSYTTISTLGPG
Excerpt: (§1) The effectiveness of the compounds of this invention as gastrin or cholecystokinin antagonists may be determined by the following pharmacologic tests which evaluate the gastrin and cholecystokinin antagonist activity of said compounds. The CCK-A Receptor Binding Assay and the Gastrin Receptor Binding Assay are standard test procedures. The CCK-A Receptor Binding Assay is essentially that of Chang, et al., "Characterization of the Binding of [^3 H]-(±)-L-364,718: A New Potent, Nonpeptide Cholecystokinin Antagonist Radioligand Selective for Peripheral Receptors", Molecular Pharmacology, 30: 212-217 (1986). The Gastrin Receptor Binding Assay is essentially that of Chang, et al., "Characterization of [^3 H]Pentagastrin Binding in Guinea Pig Gastric Glands - An Alternative Convenient Ligand for Receptor Binding Assay", Biochemical and Biophysical Research Communications, 134 (2): 895-899 (1986).
Gastrin Receptor Binding Assay
Phosphate Buffered Saline (PBS): 8.743 g NaCl, 523 mg K2 HPO4 and 76.8 mg NaH2 PO4 is dissolved in 900 ml of deionized water, the pH of the solution is adjusted to 7.3 with 5N NaOH, then Q.S. to 1 L.
Buffer A: Powdered Basal Medium Eagle (BME) containing Earle's Salts, L-glutamine and 25 mM HEPES without bicarbonate (Sigma Cat. number B 4391) sufficient to make 3 liters is stirred into 2.7 L of deionized water, […] sodium bicarbonate is added and the mixture stirred to give dissolution. The solution is then equilibrated with 95% O2 /5% CO2 gas followed by titration to a pH of 7.4 with NaOH, then Q.S. to 3 L.
Buffer B: 18.75 mg of collagenase A and 25 mg of pH neutralized BSA is dissolved in 25 ml of Buffer A.
Buffer C: 0.3 g of BSA is dissolved in 300 ml of Buffer A.
Buffer D: 6.25 mg Bacitracin is dissolved in 25 ml of Buffer A.
A guinea pig (Hartley Strain) weighing 150-200 grams, is sacrificed by CO2 asphyxiation and the stomach immediately excised, cut along the greater curvature, cleaned out and immediately immersed in a beaker containing cold PBS, pH 7.3, to insure thorough cleaning. The fundic mucosa is gently scraped off the submucosa and added to a preweighed 50 ml plastic centrifuge tube containing 30 ml of cold Buffer A. The weight of the plastic centrifuge tube containing the buffer is then subtracted from the combined weight of the mucosa and the buffer-containing tube to give the weight of the mucosa. The weight of the mucosa thus determined is recorded for later calculations. The mucosa is then washed twice in Buffer A. After the final wash, the tissue is minced and is placed in a 100-ml glass beaker containing about 1.0 ml of Buffer A, and washed twice again by repeated centrifugation at 50Xg for 5 minutes each and aspiration of supernatant. The washed tissue fragments are then added to a glass Erlenmeyer flask containing 25 ml of Buffer B and incubated in a Dubnoff shaking water bath at 37° C. for 30 minutes in a 95% O2 /5% CO2 atmosphere. After the incubation, the digested tissue fragments in the Collegenase-buffer solution are triturated, filtered through a 200-micron nylon mesh and centrifuged at 50Xg for 5 minutes. The supernatant is aspirated and discarded, the tissue washed 2X in Buffer C, resuspended in same buffer, incubated in a 37° C water bath in an atmosphere of 95% O2 /5% CO2 for 5 minutes, and centrifuged. The pelleted glands are suspended in Buffer D at a desired concentration of 2×10^5 glands/ml to use in the receptor binding assay.
Assay Buffer: Buffer A as above
^125 l-(Leu-15)-Gastrin: 100 microcurie dissolved in 2.0 ml of Buffer A to make 50 microcurie/ml; stored in 50 μl aliquots under Argon at -70° C.
^125 I-(15-methionine)-Human Gastrin: 50 microcurie/ml in deionized water, stored in 50 μl aliquots as above.
(Leu 15)-Gastrin 17:5.2 mg of (Leu-15)- Gastrin is dissolved in 10 ml of Buffer A and stored in 30 μl aliquots. At the time of assay a 1:10 dilution is made and 10 μl/assay tube is used. […]

CCK-A receptor = target: T2, CCK-A receptor (Rattus norvegicus, UniProt P30551); assay: CCK-A Receptor Binding Assay; conditions: rat pancreas membranes, displacement of 3H-L-364,718 (0.2 nM), 37° C., 30 minutes; read-out: IC50 CCK-A (In Vitro Binding Data)
T2 construct: from tissue; host or cells: rat (Sprague-Dawley) pancreas membrane homogenate
T2 sequence (P30551 1-444): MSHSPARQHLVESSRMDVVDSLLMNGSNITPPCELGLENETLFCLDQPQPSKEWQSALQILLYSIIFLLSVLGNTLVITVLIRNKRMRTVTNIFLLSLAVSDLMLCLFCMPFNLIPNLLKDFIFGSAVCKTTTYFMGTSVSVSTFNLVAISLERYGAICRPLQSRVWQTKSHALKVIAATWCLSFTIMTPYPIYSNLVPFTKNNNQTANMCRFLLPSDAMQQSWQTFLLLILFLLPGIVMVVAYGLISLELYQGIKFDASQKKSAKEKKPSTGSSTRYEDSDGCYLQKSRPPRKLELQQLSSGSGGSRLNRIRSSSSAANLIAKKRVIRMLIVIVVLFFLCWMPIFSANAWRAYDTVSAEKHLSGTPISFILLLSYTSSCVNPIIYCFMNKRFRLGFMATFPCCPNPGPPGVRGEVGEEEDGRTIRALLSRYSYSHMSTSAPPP
Excerpt: as §1
CCK-A Receptor Binding Assay
Wash Buffer (for use with Brandel Cell Harvester):
30 liters (L) of 50 mM Tris, pH 7.7: Dissolve 1 81.7 g Tris base in 4 L deionized water at room temperature. Adjust pH to 7.7 with 6N HCl and Q.S. to 30 L.
50 mM Tris-Cl, 5 mM MgCl2, 5 mM dithiothreitol, 0.14 mg/ml bacitracin, and 2 mg/ml bovine serum albumin (BSA).
1 liter of 5X stock buffer:
30.28 g Tris base per 800 ml deionized water, 5.08 g MgCl2 ·6H20, pH to 7.7 at room temperature with 6N HCl and Q.S. to 1 liter, store at 4° C.
250 ml working buffer (kept on ice):
50 ml of 5X stock buffer 0.1928 g dithiothreitol (5 mM), 35 mg bacitracin (0.14 mg/ml), and 0.5 g BSA (2mg/ml).
Unlabeled L-364,718 (nonpeptide ligand):
Unlabeled L-364,718 (N-(2,3-dihydro-1-methyl-2-oxo-5-phenyl-1H-1,4-benzodiazepin-3-yl)-1H-indole-2-carboxamide) (300 nM final concentration) is used to define nonspecific binding. A […] solution is made in absolute ethanol and stored at -70° C. Aliquots are diluted 100-fold in the assay.
A Sprague-Dawley rat is sacrificed by asphyxiation with carbon dioxide and the pancreas removed. The tissue is immersed in cold wash buffer and carefully trimmed of fat, connective tissue, blood vessels, blotted and weighed. The tissue is homogenized in a Sorvall SS-34 centrifuge tube in 50 volumes of wash buffer using a Polytron at setting 7 for 15 seconds. The tissue is centrifuged (Sorvall SS-34) at 19,000 rpm for 10 min. The supernatant is poured off and the pellet resuspended in sufficient buffer to obtain a concentration of 40 mg tissue wet weight/mi. Separate aliquots (2.3ml) are placed in each of 8 centrifuge tubes and centrifuged as before. The supernatants are poured off and the pellets stored at -70° C. Stored pellets are sufficient for the assay of 160 tubes and are stable for 1-2 months.
During the assay the stored membranes are resuspended in 40 ml of assay buffer by scraping the pellet off the wall of the centrifuge tube and washing it into a teflon-glass homogenizer. Membranes are resuspended by 5 passes with the teflon pestle and the membranes stored on ice until ready for use.
Preparation of Compounds:
Compounds of the present invention to be tested are prepared in DMSO (dimethyl sulfoxide) or in assay buffer. The majority of compounds of the present invention active as CCK antagonists generally require DMSO for complete solubility. Approximately 2-3 mg of compound is weighed directly into a 13×100 mm test tube and sufficient DMSO added to obtain a working stock solution at a concentration 100 fold greater than the highest concentration being tested in the assay. A total of 10 μl of each concentration of drug is added into a final volume of 1 ml to yield a 100 fold dilution of the working stock solution. Control binding tubes ("totals and nonspecifics") are also treated with 10 μl DMSO.
^3 H-L-364,718 is obtained from New England Nuclear (Cat. #971) and is used as supplied. […]

| IC50 (gastrin receptor) | IC50 (CCK-A receptor) | Structure (SMILES) |
| --- | --- | --- |
| > 300 µM | 30 µM | Cc1cccc(NC(=O)N2c3ccccc3C[C@H]2C(=O)N2CCc3c([nH]c4ccccc34)C2)c1 [Example 3, 2-[(N-(3-methyl)phenylcarbamoylindolin-2(S)-yl)carbonyl]-1,2,3,4-tetrahydro-9H-pyrido[3,4-b]indole] |
| 10.3 µM | 7.3 µM | O=C([C@H]1CCCN1C(=O)Nc1ccc2ccccc2c1)N1CCc2c([nH]c3ccccc23)C1 [Example 4, 2-(N-naphth-2-ylcarbamoyl-D-prolyl)-1,2,3,4-tetrahydro-9H-pyrido[3,4-b]indole] |
| 2.6 µM | 3 µM | Cc1cccc(NC(=O)N2C[C@H](OCc3ccccc3)C[C@H]2C(=O)N[C@H](CC(C)C)C(=O)N[C@H](CC(=O)O)C(N)=O)c1 [Example 7] |
| > 30 µM | 37 µM | Cc1cccc(NC(=O)N2CCC[C@@H]2C(=O)N2CCc3c([nH]c4ccccc34)C2)c1 [Example 5, 2-[N-(3-methyl)phenylcarbamoyl-D-prolyl]-1,2,3,4-tetrahydro-9H-pyrido[3,4-b]indole] |
| 0.2 µM | – | O=C(O)c1ccccc1NC(=O)[C@@H]1CCCN1C(=O)[C@@H]1C[C@@H](OCc2ccccc2)CN1C(=O)Nc1cccc2ccccc12 [Example 11, 2-[(N-(4(R)benzyloxy-N-naphth-1-ylcarbamoyl-L-prolyl)-L-prolyl)amino]benzoic acid] |
| 120 µM | 15 µM | COc1ccc(NC(=O)N2C[C@H](OCc3ccccc3)C[C@H]2C(=O)N2CCc3c([nH]c4ccccc34)C2)cc1 [Example 2, 2-[(N-(4-methoxy)phenylcarbamoyl-4(R)-benzyloxy)-L-prolyl]-1,2,3,4-tetrahydro-9H-pyrido[3,4-b]indole] |
| 0.13 µM | – | O=C(O)c1ccccc1NC(=O)[C@@H]1CCCN1C(=O)[C@@H]1C[C@@H](OCc2ccccc2)CN1C(=O)Nc1ccc2ccccc2c1 [Example 9, 2-[(N-(4(R)-benzyloxy-N-naphth-2-ylcarbamoyl-L-prolyl)-L-prolyl)amino]benzoic acid] ({βNA-CO}-[Hyp](Bn)-Pro-[2Abz]-OH) |
| > 30 µM | 37 µM | Cc1cccc(NC(=O)N2CCC[C@H]2C(=O)N2CCc3c([nH]c4ccccc34)C2)c1 [Example 6, 2-[N-(3-methyl)phenylcarbamoyl-L-prolyl]-1,2,3,4-tetrahydro-9H-pyrido[3,4-b]indole] |

| Structure (SMILES) | IC50 (gastrin receptor) | IC50 (CCK-A receptor) |
| --- | --- | --- |
| Cc1cccc(NC(=O)N2C[C@H](OCc3ccccc3)C[C@H]2C(=O)N2CCc3c([nH]c4ccccc34)C2)c1 [Example 1, 2-[(N-(3-methyl)phenylcarbamoyl-4(R)-benzyloxy)-L-prolyl]-1,2,3,4-tetrahydro-9H-pyrido[3,4-b]indole] | > 300 µM | 9 µM |
